Data from ChEMBL document CHEMBL4219268, “Synthesis and evaluation of N-(4-benzylphenyl)piperazines as VGF inducers” (Bioorg Med Chem Lett, 2018).

Key:
[1] = Drug metabolism in human liver microsomes assessed as metabolic rate per mg protein at 1 uM measured at 3 to 30 mins by LC-MS/MS analysis; format: ADME, microsome
SH-SY5Y [2] = test: Cytoprotective activity against tunicamycin-induced ER stress in human SH-SY5Y cells assessed as cell viability at 3 uM preincubated for 1 hr followed by tunicamycin addition measured after 48 hrs by WST-8 assay (reference value: 45 +/- 6.6%); format: functional; details: read-out: Activity
SH-SY5Y [3] = test: Induction of VGF gene expression in human SH-SY5Y cells at 3 uM after 24 hrs by qRT-PCR analysis relative to control; format: functional
CYP3A4 = CYP3A4 (Homo sapiens, UniProt P08684); test: Inhibition of CYP3A4 in human liver microsomes using testosterone as substrate assessed as residual activity at 10 uM preincubated for 30 mins followed by substrate addition measured after 10 mins in presence of NADPH by LC-MS/MS analysis; format: ADME; details: probe testosterone, read-out: Activity
Chain of CYP3A4 (P08684 whole entry): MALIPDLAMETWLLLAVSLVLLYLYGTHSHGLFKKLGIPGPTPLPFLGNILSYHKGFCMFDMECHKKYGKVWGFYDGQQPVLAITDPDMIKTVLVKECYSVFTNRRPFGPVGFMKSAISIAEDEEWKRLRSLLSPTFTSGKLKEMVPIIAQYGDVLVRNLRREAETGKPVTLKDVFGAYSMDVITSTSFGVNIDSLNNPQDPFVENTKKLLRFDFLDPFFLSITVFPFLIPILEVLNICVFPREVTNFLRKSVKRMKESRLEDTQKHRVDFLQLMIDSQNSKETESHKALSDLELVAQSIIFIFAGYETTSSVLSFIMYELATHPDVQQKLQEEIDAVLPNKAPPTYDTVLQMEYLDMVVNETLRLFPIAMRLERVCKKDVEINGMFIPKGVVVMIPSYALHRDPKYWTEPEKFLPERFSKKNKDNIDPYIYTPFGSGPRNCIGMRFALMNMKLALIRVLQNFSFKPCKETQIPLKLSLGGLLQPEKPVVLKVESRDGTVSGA

SH-SY5Y [4] = test: Induction of VGF gene expression in human SH-SY5Y cells at 3 uM after 24 hrs by qRT-PCR analysis relative to SUN N8075; format: functional
SH-SY5Y [5] = test: Cytoprotective activity against tunicamycin-induced ER stress in human SH-SY5Y cells assessed as cell viability at 3 uM preincubated for 1 hr followed by tunicamycin addition measured after 48 hrs by WST-8 assay relative to SUN N8075; format: functional; details: read-out: Activity

Row | Drug metabolism [1] [pmol/min] | activity at 10 min, 10 µM (CYP3A4) [%] | SMILES | viability at 3 µM (SH-SY5Y [2]) [%] | fold change (FC) (SH-SY5Y [3]) | Activity (SH-SY5Y [4]) [%] | viability at 3 µM (SH-SY5Y [5]) [%]
1 | 153 | 57 | CS(=O)(=O)O.CS(=O)(=O)O.Cc1cc(OCC(O)CN2CCN(c3ccc(Cc4ccc(F)cc4)cc3)CC2)c(C)c(C)c1N (stereo unspecified) | 82 | 5.1 | – | –
2 | 17 | 108 | Cc1cc(S(N)(=O)=O)ccc1OCC(F)CN1CCN(c2ccc(Cc3ccc(F)cc3)cc2)CC1 (stereo unspecified) | – | – | 114 | 105
3 | 34 | 76 | NC(=O)c1ccc(OCC(F)CN2CCN(c3ccc(Cc4ccc(F)cc4)cc3)CC2)cc1 (stereo unspecified) | – | – | 20 | 21
4 | 34 | 93 | Cl.Cl.Cl.Fc1ccc(Cc2ccc(N3CCN(CC(F)(F)COc4ccc5ncccc5c4)CC3)cc2)cc1 | – | – | 68 | 67
5 | 47 | 94 | Cl.Fc1ccc(Cc2ccc(N3CCN(CCCOc4ccc5ncccc5c4)CC3)cc2)cc1 | – | – | 52 | 75
6 | 122 | 70 | OC(COc1ccc2ncccc2c1)CN1CCN(c2ccc(Cc3ccc(F)cc3)cc2)CC1 (stereo unspecified) | – | – | 36 | 64
7 | 27 | 88 | O=C1CCc2cc(OCC(O)CN3CCN(c4ccc(Cc5ccc(F)cc5)cc4)CC3)ccc2N1 (stereo unspecified) | – | – | 32 | 33
8 | 79 | 59 | OC(COc1ccc2[nH]ccc2c1)CN1CCN(c2ccc(Cc3ccc(F)cc3)cc2)CC1 (stereo unspecified) | – | – | 30 | 43
9 | 28 | – | Cl.OC(COc1ccccc1)CN1CCN(c2ccc(Cc3ccc(F)cc3)cc2)CC1 (stereo unspecified) | – | – | 8 | 43
10 | 12 | 99 | NS(=O)(=O)c1ccc(OCC(F)CN2CCN(c3ccc(Cc4ccc(F)cc4)cc3)CC2)cc1 (stereo unspecified) | – | – | 71 | 88
11 | 32 | 92 | Cc1cc(S(N)(=O)=O)c(C)c(C)c1OCC(F)CN1CCN(c2ccc(Cc3ccc(F)cc3)cc2)CC1 (stereo unspecified) | – | – | 172 | 106

Row | SMILES | Drug metabolism [1] [pmol/min] | activity at 10 min, 10 µM (CYP3A4) [%] | viability at 3 µM (SH-SY5Y [2]) [%] | fold change (FC) (SH-SY5Y [3]) | Activity (SH-SY5Y [4]) [%] | viability at 3 µM (SH-SY5Y [5]) [%]
12 | Cl.Cl.Cl.Fc1ccc(Cc2ccc(N3CCN(CC(F)COc4ccncc4)CC3)cc2)cc1 (stereo unspecified) | < 10 | 101 | – | – | 13 | 13
13 | Cc1cc(OCC(F)CN2CCN(c3ccc(Cc4ccc(F)cc4)cc3)CC2)cc(C)n1.Cl.Cl.Cl (stereo unspecified) | 41 | 67 | – | – | 79 | 82
14 | Cc1cc(OC[C@@H](F)CN2CCN(c3ccc(Cc4ccc(F)cc4)cc3)CC2)cc(C)n1.Cl | 37 | 80 | – | – | 68 | 96
15 | Cc1cc(OC[C@H](F)CN2CCN(c3ccc(Cc4ccc(F)cc4)cc3)CC2)cc(C)n1.Cl | 71 | 83 | – | – | 78 | 93
16 | Cc1cc(OCC(F)CN2CCN(c3ccc(Cc4ccc(F)cc4)cc3)CC2)c(C)c(C)c1N.Cl.Cl.Cl (stereo unspecified) | 106 | 75 | – | – | 126 | 94
17 | Cc1cc(C)c(C)c(OCC(F)CN2CCN(c3ccc(Cc4ccc(F)cc4)cc3)CC2)c1.Cl.Cl (stereo unspecified) | 25 | 107 | – | – | 75 | 60
18 | Cl.Cl.Cl.Fc1ccc(Cc2ccc(N3CCN(CC(F)COc4ccc5ncccc5c4)CC3)cc2)cc1 (stereo unspecified) | 79 | 82 | – | – | 77 | 89
